Assay: Solubility test of compound in safe solvent
Type: physicochemical
Details: 23° C.; for dissolution amount in CHN: cyclohexanone (CHN); for dissolution amount in PGME: propylene glycol monomethyl ether (PGME)
Procedure: The dissolution amounts of compounds obtained in the above synthesis examples 1 to 4 and syntheses 1 and 2 in propylene glycol monomethyl ether (PGME) and cyclohexanone (CHN) were evaluated as follows.
A: 5.0% by mass≦dissolution amount B: 3.0% by mass≦dissolution amount<5.0% by mass C: dissolution amount<3.0% by mass
dissolution amount (% by mass)=mass (g) of compound dissolved in 100 g of solvent of 23° C./(100 g of mass of solvent+mass (g) of compound dissolved in 100 g of solvent of 23° C.)×100

Row | Compound | dissolution amount in CHN | dissolution amount in PGME
1 | CC(C)c1ccc(C2c3cc(c(O)cc3O)C(c3ccc(C(C)C)cc3)c3cc(c(O)cc3O)C(c3ccc(C(C)C)cc3)c3cc(c(O)cc3O)C(c3ccc(C(C)C)cc3)c3cc2c(O)cc3O)cc1 (stereo not shown) [CR-1A] | C (dissolution amount<3.0% by mass) | B (3.0% by mass≦dissolution amount<5.0% by mass)
2 | Oc1cc(O)c2cc1C(c1ccc(C3CCCCC3)cc1)c1cc(c(O)cc1O)C(c1ccc(C3CCCCC3)cc1)c1cc(c(O)cc1O)C(c1ccc(C3CCCCC3)cc1)c1cc(c(O)cc1O)C2c1ccc(C2CCCCC2)cc1 (stereo not shown) [CR-2A] | B (3.0% by mass≦dissolution amount<5.0% by mass) | B (3.0% by mass≦dissolution amount<5.0% by mass)

— patent US20140329177A1, “CYCLIC COMPOUND, METHOD FOR PRODUCING SAME, RADIATION-SENSITIVE COMPOSITION, AND RESIST PATTERN FORMATION METHOD” (MITSUBISHI GAS CHEMICAL COMPANY, INC., priority 2011, published 2014)
